Measurements as given in patent publication US8409825B2, “Method for high-level secretory production of protein” (National Institute of Advanced Industrial Science and …, priority 2007, dated 2013).
Like-named read-outs stand apart in the source and are kept apart here.

Columns and labels:
[1] = tested on: antibody-producing yeast strain (ona02306 strain); conditions: for amount of antibody production: control 0.8 mg/l, FIG. 5
Experimental: Control culture was carried out at an agitation speed of 310 rpm, an amplitude of 50 mm, at 30° C. for 2 days, 100 μl of 2× YP-P6-GG medium was added, and 100 μl of 2× YP-P6-GG medium was further added on day 3. In the case of culture involving single addition of a rhodanine-3-acetic acid derivative 1c, culture was carried out at an agitation speed of 310 rpm, an amplitude of 50 mm, at 30° C. for 2 days, 100 μl of 2× YP-P6-GG medium was added, and 100 μl of 2× YP-P6-GG medium containing 20 μM of 1c was further added on day 3. In the case of culture involving addition of a rhodanine-3-acetic acid derivative 1c twice, culture was carried out at an agitation speed of 310 rpm, an amplitude of 50 mm, at 30° C. for 2 days, 100 μl of 2× YP-P6-GG medium containing 20 μM of 1c was added, and 100 μl of 2× YP-P6-GG medium containing 20 μM of 1c was further added on day 3.
Yeast cells were removed from the culture product via centrifugation at 2,700×g and 4° C. for 5 minutes, and the resulting culture supernatant was designated as a sample of secreted antibody. The secreted and produced antibodies were subjected to quantitative assay via sandwich ELISA. TRAIL receptor proteins that were antigens of the anti-TRAIL receptor antibodies were adsorbed on a 96-well plate, the sample of secreted antibody was added, and detection was carried out using a peroxidase-labeled human IgG specific Fc antibody (Peroxidase-labeled affinity purified antibody to human IgG (Fc) (KPL, 04-10-20)) and the ABTS peroxidase substrate (KPL, 50-66-01).
Western blotting was carried out as follows. After the protein was subjected to SDS-PAGE under reducing and non-reducing conditions, the separated protein was blotted to a PVDF membrane, and the antibody heavy chain and the light chain were detected using Anti-human IgG (γ-chain specific) (Sigma, I-3382) and Goat anti human kappa b&f affinity purified (Bethyl, A-80-115A) as the primary antibodies. Peroxidase conjugated affinity purified anti-goat IgG (H&L) (Rabbit) (Rockland, #605-4313) was used as the secondary antibody. […]

[2] = tested on: S. cerevisiae ZUO1/YGR285C strain; conditions: control strain
Experimental: The S. cerevisiae ZUO1/YGR285C strain was sowed in 5 ml of YPAD medium (YPD medium containing 0.04% adenine (Sigma)), and yeast cells resulting from overnight culture at 30° C. and 310 rpm were used.
ST medium (500 μl) (Yeast Nitrogen Base and Ammonium sulfate medium containing 2% glucose, 0.04% adenine, and 0.3M KCl and lacking uracil and leucine (Sigma)) was applied onto a 96-deep well plate (Greiner, 780271), the transformant was sowed with the use of a toothpick, the top of the plate was sealed with CO2-permeable plate sealers (Greiner, 676051), and culture was carried out at an agitation speed of 310 rpm, an amplitude of 50 mm, at 30° C. for 3 days. Control culture was carried out by applying 1 ml of YPAD medium to a 96-deep well plate (Greiner, 780271). […] The culture solution that had been cultured in ST medium was sowed to a final concentration of 5%, and the top of the plate was sealed with CO2-permeable plate sealers (Greiner, 676051). Thereafter, culture was carried out at an agitation speed of 310 rpm, an amplitude of 50 mm, at 30° C. for 3 days. The culture supernatant was prepared from the culture solution and it was designated as a sample containing an antibody secreted and produced by yeast. […]

[3] = tested on: O. minuta PMT4-deficient strain (ona98808 strain); conditions: 0.25 μM 1c (final concentration), FIG. 26
Experimental: The antibody-producing strain was cultured in the following manner. With the use of 2× YP-P6-GG medium (the medium was prepared by dissolving 20 g of Difco yeast extract and 40 g of Bacto peptone in 900 ml of pure water, sterilizing the solution via steaming under pressure, and adding 100 ml of separately sterilized 10× phosphate buffer (pH 6.0) (1M KH2PO4, 0.15M (NH4)2SO4, 0.375N KOH), 10 ml of a separately sterilized 50% glucose solution, and 25 ml of separately sterilized 80% glycerine), 800 μl of 2× YP-P6-GG medium was introduced into a 96-deep well plate (Greiner, 780271), the strains were sowed with the use of a toothpick, and the top of the plate was sealed with CO2-permeable plate sealers (Greiner, 676051). […]
Yeast cells were removed from the culture product via centrifugation at 2,700×g and 4° C. for 5 minutes, and the resulting culture supernatant was designated as a sample of secreted antibody. The secreted and produced antibodies were subjected to quantitative assay via sandwich ELISA. […] After the protein was subjected to SDS-PAGE under reducing and non-reducing conditions, the separated protein was blotted to a PVDF membrane, and the antibody heavy chain and light chain were detected using Anti-human IgG (γ-chain specific) (Sigma, I-3382) and Goat anti human kappa b&f affinity purified (Bethyl, A-80-115A) as the primary antibodies. […]

## 5-[[3,4-(1-phenylmethoxy)phenyl]methylene]-4-oxo-2-thioxo-3-thiazolidineacetic acid [rhodanine-3-acetic acid derivative 1c]
[1]; addition of PMT inhibitors to culture, FIG. 6
  high-molecular-weight antibody heavy chain (Western blot, reducing electrophoresis): decreased
[1]; addition of PMT inhibitors twice (100 μl medium containing 20 μM 1c on day 2 and day 3)
  amount of antibody production: approximately 1.9 mg/l
[1]; single addition of PMT inhibitors (100 μl medium containing 20 μM 1c on day 3)
  amount of antibody production: approximately 1.7 mg/l
[2]; 1c final concentration 10 μM, versus control culture
  increase of amount of antibody secretory production when addition of an O-sugar chain was suppressed: approximately 2.5 times
[2]; O-sugar chain addition suppressed (1c final concentration 10 μM), without 1c 3.9 ng/ml, FIG. 14
  amount of antibody secretory production: 10 ng/mL
[3]
  improvement of the amount of production: approximately 13%
